The record followed here is patent publication US12685312B2, “Sulfonamide apyrase inhibitors” (Texas Crop Science, Inc., priority 2022, dated 2026).

The test system of the test is apyrase. Nature of the test: Screen for apyrase inhibitors (Method 1, in vitro phosphate-release absorbance assay). It is filed as biochemical. The conditions noted are these: inhibitor conc at 1 mM stock, 1 hr room temperature, absorbance 630 nm; rounded average of two assay results. Summed up:
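Phosphate-release colorimetric assay (Windsor method) in 60 mM Hepes, 3 mM MgCl2, 3 mM CaCl2, 3 mM ATP, pH 6.5, with compound or DMSO control added. Released phosphate developed with ammonium molybdate and ascorbic acid/TCA, then stopped with citrate/acetic acid.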
Take `O=C(Nc1ccc(OCC(F)(F)F)cc1)c1cccc(S(=O)(=O)Nc2ccc3c(c2)OCO3)c1` [I-259, 3-(N-(benzo[d][1,3]dioxol-5-yl)sulfamoyl)-N-(4-(2,2,2-trifluoroethoxy)phenyl)benzamide]: the “% Inhibition of Apyrase” value turned out to be 60%. With `CN(c1ccc(F)cc1)S(=O)(=O)c1ccc(Cl)c(C(=O)Nc2ccc(F)c(Cl)c2)c1` [I-528, 2-chloro-N-(3-chloro-4-fluorophenyl)-5-(N-(4-fluorophenyl)-N-methylsulfamoyl)benzamide], the “% Inhibition of Apyrase” value is 55%. The same measure for `CC1Cc2ccccc2N1S(=O)(=O)c1cccc(C(=O)N2CCCc3cc(F)c(F)cc32)c1` (stereo not drawn) [I-571, (6,7-difluoro-3,4-dihydroquinolin-1(2H)-yl)(3-((2-methylindolin-1-yl)sulfonyl)phenyl)methanone]: 51%; for `O=C(c1ccc(Cl)c(S(=O)(=O)N2CCc3ccccc32)c1)N1CCc2cc([N+](=O)[O-])ccc21` [I-495, (4-chloro-3-(indolin-1-ylsulfonyl)phenyl)(5-nitroindolin-1-yl)methanone]: 57%; for `COc1ccc(NS(=O)(=O)c2ccc(C(=O)Nc3ccc4c(c3)OCCO4)cc2)cc1` [I-887, N-(2,3-dihydrobenzo[b][1,4]dioxin-6-yl)-4-(N-(4-methoxyphenyl)sulfamoyl)benzamide]: 43%.

As to `COc1ccc(C(=O)Nc2ccc(Cl)cc2)cc1S(=O)(=O)Nc1ccc(Br)cc1` [I-33, 3-(N-(4-bromophenyl)sulfamoyl)-N-(4-chlorophenyl)-4-methoxybenzamide], the “% Inhibition of Apyrase” value worked out at 19%. The same measure for `COc1ccccc1NC(=O)c1ccc(NS(=O)(=O)c2ccc(C(F)(F)F)cc2)cc1` [I-934, N-(2-methoxyphenyl)-4-((4-(trifluoromethyl)phenyl)sulfonamido) benzamide]: 53%; for `O=C(Nc1cccc(F)c1)c1cccc(S(=O)(=O)N2CCc3ccccc32)c1` [I-443, N-(3-fluorophenyl)-3-(indolin-1-ylsulfonyl)benzamide]: 61%.

Regarding `COc1ccccc1NS(=O)(=O)c1ccc(NC(=O)c2ccc3c(c2)OCCO3)cc1` [I-981, N-(4-(N-(2-methoxyphenyl)sulfamoyl)phenyl)-2,3-dihydrobenzo[b][1,4]dioxine-6-carboxamide], the “% Inhibition of Apyrase” value amounted to 57%. The figure for `O=C(Nc1cccc(NS(=O)(=O)c2ccc(Cl)cc2)c1)c1ccc(F)cc1F` [I-343, N-(3-((4-chlorophenyl)sulfonamido)phenyl)-2,4-difluorobenzamide] is 59%. The same measure for `Cc1cccc(C(=O)Nc2cccc(S(=O)(=O)Nc3cccc(C(F)(F)F)c3)c2)n1` [I-708, 6-methyl-N-(3-(N-(3-(trifluoromethyl)phenyl)sulfamoyl)phenyl) picolinamide]: 61%; for `Cc1ccc(N(C)S(=O)(=O)c2cccc(C(=O)Nc3ccc4c(c3)CCC4)c2)cc1` [I-504, N-(2,3-dihydro-1H-inden-5-yl)-3-(N-methyl-N-(p-tolyl)sulfamoyl)benzamide]: 57%. For the compound `CC1Cc2ccccc2N1S(=O)(=O)c1cccc(C(=O)Nc2cccc3ncccc23)c1` (stereo not drawn) [I-602, 3-((2-methylindolin-1-yl)sulfonyl)-N-(quinolin-5-yl)benzamide], the “% Inhibition of Apyrase” value is listed as 28%.

In the case of `CN(c1ccccc1)S(=O)(=O)c1ccccc1C(=O)Nc1ccc(C#N)cc1` [I-811, N-(4-cyanophenyl)-2-(N-methyl-N-phenylsulfamoyl)benzamide], the “% Inhibition of Apyrase” value amounted to 74%.

For `Cc1ccc(S(=O)(=O)Nc2ccc(F)cc2)cc1C(=O)N1CCc2ccccc21` [I-543, N-(4-fluorophenyl)-3-(indoline-1-carbonyl)-4-methylbenzenesulfonamide], the “% Inhibition of Apyrase” value is 54%. For `O=C(Nc1cccc(N2CCCC2=O)c1)c1ccc(NS(=O)(=O)c2ccccc2)cc1` [I-950, N-(3-(2-oxopyrrolidin-1-yl)phenyl)-4-(phenylsulfonamido)benzamide], the “% Inhibition of Apyrase” value worked out at 39%. The same measure for `Cc1ccc(NC(=O)c2cccc(S(=O)(=O)Nc3ccccc3F)c2)c(F)c1` [I-613, N-(2-fluoro-4-methylphenyl)-3-(N-(2-fluorophenyl)sulfamoyl)benzamide]: 3%.

For the compound `O=C(Nc1ccccc1Cl)c1cccc(NS(=O)(=O)c2cccs2)c1` [I-665, N-(2-chlorophenyl)-3-(thiophene-2-sulfonamido)benzamide], the “% Inhibition of Apyrase” value was found to be 22%.

For the compound `O=C(Nc1ccc(F)cc1)c1ccccc1NS(=O)(=O)c1cccc(C(F)(F)F)c1` [I-374, N-(4-fluorophenyl)-2-((3-(trifluoromethyl)phenyl)sulfonamido) benzamide], the “% Inhibition of Apyrase” value is listed as 48%. The same measure for `O=C(Nc1nccs1)c1cccc(NS(=O)(=O)c2ccc3c(c2)OCCCO3)c1` [I-644, 3-((3,4-dihydro-2H-benzo[b][1,4]dioxepine)-7-sulfonamido)-N-(thiazol-2-yl)benzamide]: 54%. The same measure for `O=C1CCCN1c1ccccc1NS(=O)(=O)c1ccc(Br)cc1` [I-842, 4-bromo-N-(2-(2-oxopyrrolidin-1-yl)phenyl)benzenesulfonamide]: 5%; for `O=C(Nc1ccc2[nH]c(=O)[nH]c2c1)c1cccc(S(=O)(=O)N2CCc3ccccc32)c1` [I-598, 3-(indolin-1-ylsulfonyl)-N-(2-oxo-2,3-dihydro-1H-benzo[d]imidazol-5-yl)benzamide]: 31%; for `O=C(Nc1cccc(NS(=O)(=O)c2ccc(Cl)cc2)c1)c1ccc2[nH]nnc2c1` [I-340, N-(3-((4-chlorophenyl)sulfonamido)phenyl)-1H-benzo[d][1,2,3]triazole-5-carboxamide]: 65%.

Turning to `O=C(Nc1ccc(Cl)c(S(=O)(=O)N2CCOCC2)c1)c1ccc(S(=O)(=O)Nc2cccc(C(F)(F)F)c2)cc1` [I-386, N-(4-chloro-3-(morpholinosulfonyl)phenyl)-4-(N-(3-(trifluoromethyl)phenyl)sulfamoyl)benzamide], the “% Inhibition of Apyrase” value is 65%. For the compound `Cc1ccc(NC(=O)c2cccc(NS(=O)(=O)c3cccs3)c2)cc1C` [I-636, N-(3,4-dimethylphenyl)-3-(thiophene-2-sulfonamido)benzamide], the “% Inhibition of Apyrase” value turned out to be 58%. The figure for `O=C(Nc1ccc(F)c([N+](=O)[O-])c1)c1ccc(S(=O)(=O)Nc2ccc(Cl)cc2)cc1` [I-203, 4-(N-(4-chlorophenyl)sulfamoyl)-N-(4-fluoro-3-nitrophenyl)benzamide] is 72%. The same measure for `COc1ccc(NC(=O)c2cccc(S(=O)(=O)Nc3cccc(Cl)c3)c2)cn1` [I-612, 3-(N-(3-chlorophenyl)sulfamoyl)-N-(6-methoxypyridin-3-yl)benzamide]: 4%; for `COc1ccccc1C(=O)Nc1ccc(S(=O)(=O)Nc2ccc(Cl)cc2)cc1` [I-978, N-(4-(N-(4-chlorophenyl)sulfamoyl)phenyl)-2-methoxybenzamide]: 59%; for `Cc1occc1C(=O)Nc1cccc(S(=O)(=O)Nc2cccc(C(F)(F)F)c2)c1` [I-747, 2-methyl-N-(3-(N-(3-(trifluoromethyl)phenyl)sulfamoyl)phenyl) furan-3-carboxamide]: 44%.

In the case of `CN(c1ccccc1)S(=O)(=O)c1ccccc1C(=O)Nc1ccc(Cl)cc1F` [I-808, N-(4-chloro-2-fluorophenyl)-2-(N-methyl-N-phenylsulfamoyl)benzamide], the “% Inhibition of Apyrase” value turned out to be 80%. As to `O=C(Nc1ccc(S(=O)(=O)N2CCCC2)cc1)c1ccccc1NS(=O)(=O)c1cccc(C(F)(F)F)c1` [I-373, N-(4-(pyrrolidin-1-ylsulfonyl)phenyl)-2-((3-(trifluoromethyl)phenyl)sulfonamido) benzamide], the “% Inhibition of Apyrase” value came to 71%. The same measure for `CC1Cc2ccccc2N1C(=O)c1ccc(NS(=O)(=O)c2ccccc2)cc1` (stereo not drawn) [I-911, N-(4-(2-methylindoline-1-carbonyl)phenyl)benzenesulfonamide]: 59%. The figure for `N#CCc1ccc(NC(=O)c2cccc(S(=O)(=O)Nc3ccc4c(c3)OCO4)c2)cc1` [I-274, 3-(N-(benzo[d][1,3]dioxol-5-yl)sulfamoyl)-N-(4-(cyanomethyl)phenyl)benzamide] is 48%; for `O=C(Nc1ccc(Br)cn1)c1cccc(NS(=O)(=O)c2ccc(F)c(Cl)c2)c1` [I-666, N-(5-bromopyridin-2-yl)-3-((3-chloro-4-fluorophenyl)sulfonamido)benzamide] it is 21%. The figure for `Cc1ccc(NC(=O)c2ccc(NS(=O)(=O)c3ccc(Br)cc3)cc2)cc1S(=O)(=O)N(C)C` [I-945, 4-((4-bromophenyl)sulfonamido)-N-(3-(N,N-dimethylsulfamoyl)-4-methylphenyl)benzamide] is 44%. As to `O=C(Nc1cc(Cl)ccc1N1CCOCC1)c1cccc(S(=O)(=O)N2CCc3ccccc32)c1` [I-549, N-(5-chloro-2-morpholinophenyl)-3-(indolin-1-ylsulfonyl)benzamide], the “% Inhibition of Apyrase” value came out at 53%. The same measure for `COc1ccc(NS(=O)(=O)c2cccc(NC(=O)c3cc4c(s3)CCC4)c2)cc1` [I-742, N-(3-(N-(4-methoxyphenyl)sulfamoyl)phenyl)-5,6-dihydro-4H-cyclopenta[b]thiophene-2-carboxamide]: 50%; for `Cc1ccc(NS(=O)(=O)c2cccc(C(=O)Nc3c(C)cc(C)cc3C)c2)c(C)c1` [I-508, 3-(N-(2,4-dimethylphenyl)sulfamoyl)-N-mesitylbenzamide]: 57%; for `COc1ccc2c(c1)CCCN2C(=O)c1cccc(S(=O)(=O)Nc2ccccc2F)c1` [I-561, N-(2-fluorophenyl)-3-(6-methoxy-1,2,3,4-tetrahydroquinoline-1-carbonyl)benzenesulfonamide]: 51%.
